Results: the NIST ThermoML archive (doi:10.1016/j.jct.2014.02.019)

Tests used:
[1] = 101 kPa, Liquid; for viscosity: Capillary tube (Ostwald / Ubbelohde) method; for mass density: Vibrating tube method
[2] = wn = mass fraction of the nth substance listed; conditions: 101 kPa, Liquid; for viscosity: Capillary tube (Ostwald / Ubbelohde) method; for mass density: Vibrating tube method

CN(C)C=O [dimethylformamide]
[1]
Conditions	mass density [kg/m3]	viscosity [mPa·s]
298.15 K	944.65	0.7986
303.15 K	940.05	0.755
308.15 K	935.71	0.7069
313.15 K	929.91	0.6716

CC#N [acetonitrile] + CN(C)C=O
[2]
Conditions	mass density, 298.15 K [kg/m3]	mass density, 303.15 K [kg/m3]	mass density, 308.15 K [kg/m3]	mass density, 313.15 K [kg/m3]	viscosity, 298.15 K [mPa·s]	viscosity, 303.15 K [mPa·s]	viscosity, 308.15 K [mPa·s]	viscosity, 313.15 K [mPa·s]
w2 = 0	776.47	771.56	765.26	759.55	0.342	0.3269	0.3092	0.2929
w2 = 0.25	816.75	811.82	806.58	801.83	0.3959	0.3598	0.3417	0.3262
w2 = 0.5	856.92	852.67	847.38	842.57	0.5214	0.46	0.434	0.4038
w2 = 0.75	900.14	895.46	890.88	886.23	0.6465	0.6145	0.5816	0.5524

CN(C)C=O [dimethylformamide] + CC#N
[2], w1 = 1
Conditions	mass density [kg/m3]	viscosity [mPa·s]
298.15 K	944.65	0.7986
303.15 K	940.05	0.755
308.15 K	935.71	0.7069
313.15 K	929.91	0.6716

CC#N [acetonitrile]
[1]
Conditions	mass density [kg/m3]	viscosity [mPa·s]
298.15 K	776.47	0.342
303.15 K	771.56	0.3269
308.15 K	765.26	0.3092
313.15 K	759.55	0.2929
